Experiment [1] deals with mono-methyl arginine in RKO cells. As to the kind of experiment: RKO Methylation Assay, In Cell Western (ICW) for mono-methyl arginine and DNA content. The class given is cell-based. Particulars: Homo sapiens, RKO, 72 h. The method in brief:
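RKO cells treated with compound for 72 hours at 37 °C, then methanol-fixed and stained overnight at 4 °C with anti-mono-methyl arginine antibody, plus DRAQ5 for DNA. Signal ratio from 700 and 800 nm infrared scans normalized to DMSO (minimum) and 20 μM reference compound (maximum); EC30 from triplicate curves.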

Experiment [2] deals with T1, human PRMT6 (Homo sapiens, UniProt Q96LA8).
T1 construct: Flag-PRMT6-His; made in house; host or cells: HEK 293F cells (BacMam baculovirus)
As to the kind of experiment: PRMT6 Biochemical Assay (3H-SAM Flashplate, peptide substrate). The following applies: Biochemical IC50 PRMT6, single experiment or average of multiple experiments. An outline of the steps: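 Flag-PRMT6-His, expressed in mammalian cells from a BacMam vector, was preincubated with compound for 30 min at room temperature in Bicine pH 7.6 buffer with TCEP, BSG and Tween 20. Reactions were started with ³H-SAM and a biotinylated histone H4 36-50 peptide, then stopped with cold SAM (400 uM final). Labeled peptide was captured on streptavidin Flashplates, counted, and fitted to a 3- or 4-parameter curve.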

The mark [3] stands for this setting: RKO cells, 72 hours, mono-methyl arginine, percent activation, single experiment or average of multiple experiments, read-out: EC30 (In Cell Western data, Numerical).
[4] abbreviates: read-out: EC30 (In Cell Western data, Numerical, μM).

Structures are written as SMILES. Where two headings read alike, the source gives them in different places.

Broadly, the EC30 is the concentration at which the effect reaches the 30% level. In general, IC50 refers to the concentration at which inhibition is half-maximal.

T1 sequence (Q96LA8 with tags, fused parts or gaps): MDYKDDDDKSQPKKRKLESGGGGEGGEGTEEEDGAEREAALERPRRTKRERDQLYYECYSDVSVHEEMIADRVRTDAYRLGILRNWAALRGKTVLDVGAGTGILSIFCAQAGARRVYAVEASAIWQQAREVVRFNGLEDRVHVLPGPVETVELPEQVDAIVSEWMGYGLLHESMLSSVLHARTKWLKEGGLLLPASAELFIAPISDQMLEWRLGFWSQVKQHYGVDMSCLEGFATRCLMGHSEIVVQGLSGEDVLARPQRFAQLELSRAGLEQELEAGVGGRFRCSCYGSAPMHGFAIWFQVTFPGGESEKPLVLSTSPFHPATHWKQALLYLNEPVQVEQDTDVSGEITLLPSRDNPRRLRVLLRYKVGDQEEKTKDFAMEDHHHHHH

Consider `CNCCN(C)Cc1c[nH]nc1-c1ccc(C(F)(F)F)cc1` [Compound 174], for which, in experiment [1] (setting [3]), the EC30 stood at 0.26 µM. For the same molecule, the IC50 in experiment [2] turned out to be 15 nM. Consider `COc1ccc(-c2n[nH]cc2CN(C)CCN)c(C)c1` [Compound 155], for which the EC30 in experiment [1] (setting [3]) came out at 10.6 µM. The same molecule yielded an IC50 in experiment [2] of 22.3 nM. Taken in the same sequence, the figures for `CCn1cc(CN(C)CCNC)c(-c2ccc(OC(C)C)cc2)n1` [Compound 213] were 0.708 µM and 82.1 nM.

Regarding `Cc1cc(F)ccc1-c1n[nH]cc1CN(C)CCN` [Compound 152], the EC30 in experiment [1] (setting [3]) came to 5.78 µM. Besides, in experiment [2], it took 22.7 nM to reach half-maximal inhibition (IC50).

In the case of `CC(C)CN1C(=O)COc2cc(-c3n[nH]cc3CN(C)CCN)ccc21` [Compound 193], the EC30 in experiment [1] (setting [3]) was determined as 9.72 µM. Further, in experiment [2], half-maximal inhibition (IC50) required 247 nM.

Consider `CNCCN(C)Cc1cnn(C(C)C)c1-c1ccc(F)cc1` [Compound 16], for which the EC30 in experiment [1] (setting [4]) was > 20 µM. This molecule also returned an IC50 in experiment [2] of 57.9 nM. Regarding `CC(C)Oc1cccc(-c2n[nH]cc2CN(C)CCN)c1` [Compound 187], the EC30 in experiment [1] (setting [3]) came to 7.07 µM. In addition, the IC50 in experiment [2] is 77.6 nM. In the same order, the values of `CN(CCN)Cc1c[nH]nc1-c1ccc(Oc2ccc(F)cc2)cc1` [Compound 225, N^1-((3-(4-(4-fluorophenoxy)phenyl)-1H-pyrazol-4-yl)methyl)-N^1-methylethane-1,2-diamine] are 0.688 µM and 1.33 nM. Taken in the same sequence, the figures for `COCCOc1ccc(-c2n[nH]cc2CN(C)CCN)cc1` [Compound 167] were 0.845 µM and 17.4 nM. Take `CCOC(=O)c1cccc(-c2n[nH]cc2CN(C)CCN)c1` [Compound 150]: the EC30 in experiment [1] (setting [3]) worked out at 6.66 µM. The IC50 in experiment [2] came to 29 nM. In the same order, the values of `CN(CCN(C)C1CC1)Cc1c[nH]nc1-c1ccc(C#N)cc1` [Compound 184] are 2.41 µM and 2380 nM. In the same order, the values of `CN(CCN)Cc1c[nH]nc1-c1cccc(N(C)C)c1` [Compound 149] are 4.32 µM and 62.5 nM. On to `CC(C)Oc1ccc(-c2nn(C)cc2CN(C)CCN)cc1` [Compound 176], for which the EC30 in experiment [1] (setting [3]) came out at 0.882 µM. Further, the IC50 in experiment [2] was 67.3 nM. In the same order, the values of `CN(CCN)Cc1c[nH]nc1-c1ccc(OC2CCOCC2)cc1` [Compound 178] are 0.954 µM and 7.22 nM. In the same order, the values of `CC(C)Oc1cc(-c2n[nH]cc2CN(C)CCN)ccc1F` [Compound 188] are 12.3 µM and 37.4 nM.

For `CN(CCN)Cc1c[nH]nc1-c1ccc(Oc2cccc(F)c2)cc1` [Compound 205], the EC30 in experiment [1] (setting [3]) worked out at 1.69 µM. Also, the IC50 in experiment [2] was 1.53 nM. In the same order, the values of `CCN(C)C(=O)c1cccc(-c2n[nH]cc2CN(C)CCN)c1` [Compound 198] are > 20 µM and 322 nM.

As to `CNCCN(C)Cc1cnn(C2CCOC2)c1-c1ccc(OC(C)C)cc1` (stereo not drawn) [Compound 216], in experiment [1] (setting [3]), the EC30 came out at 0.726 µM. Further, in experiment [2], it took 27.7 nM to reach half-maximal inhibition (IC50). In the same order, the values of `CCC(=O)N1CCN(c2ccc(-c3n[nH]cc3CN(C)CCN)cc2)CC1` [Compound 189] are > 20 µM and 29.5 nM.

As to `CN(CCN)Cc1c[nH]nc1-c1cc(Cl)ccc1F` [Compound 156], in experiment [1] (setting [3]), the EC30 worked out at 9.56 µM. For the same molecule, in experiment [2], the IC50 was 43.1 nM. `CNCCN(C)Cc1cn[nH]c1-c1cc(F)cc(F)c1` [Compound 18]: the IC50 in experiment [2] was found to be 13.6 nM.

As to `CN(CCN)Cc1c[nH]nc1-c1ccc(Oc2ccccc2)c(C#N)c1` [Compound 202], the EC30 in experiment [1] (setting [3]) came to 0.941 µM. This molecule also showed a half-inhibitory concentration (IC50) in experiment [2] of 2.9 nM. For the molecule `COc1ccc(-c2n[nH]cc2CN(C)CCN)cc1` [Compound 153], in experiment [1] (setting [3]), the EC30 turned out to be 1.39 µM. The same molecule yielded an IC50 in experiment [2] of 11.6 nM. Taken in the same sequence, the figures for `CC(C)Oc1ccc(-c2c(CN(C)CCN)cnn2C)cc1` [Compound 177] were 0.295 µM and 34.2 nM. In the same order, the values of `CNCCN(C)Cc1n[nH]cc1-c1ccc(OC(C)C)c(F)c1` [Compound 210] are 0.268 µM and 16.1 nM. Regarding `CNCCN(C)Cc1c[nH]nc1-c1ccc(Oc2ccccc2)c(C#N)c1` [Compound 221], the EC30 in experiment [1] (setting [3]) was 0.413 µM. This molecule also gave an IC50 in experiment [2] of 6.72 nM. Consider `CN(CCN)Cc1c(-c2ccc(C#N)cc2)ncn1C` [Compound 222], for which, in experiment [1] (setting [3]), the EC30 was > 20 µM. Besides, the IC50 in experiment [2] worked out at 1160 nM. In the same order, the values of `CNCCN(C)Cc1cnn(C2CC2)c1-c1ccc(F)cc1` [Compound 14] are 3.35 µM and 27.7 nM.

In the case of `CN(CCN)Cc1c[nH]nc1-c1ccc(Oc2ccccc2)c(F)c1` [Compound 224, N^1-((3-(3-fluoro-4-phenoxyphenyl)-1H-pyrazol-4-yl)methyl)-N^1-methylethane-1,2-diamine], the EC30 in experiment [1] (setting [4]) came to 0.27 µM. This molecule also showed an IC50 in experiment [2] of 1.98 nM. In the case of `CC(C)Oc1ccc(-c2c[nH]nc2CN(C)CCN)cc1Cl` [Compound 211], the EC30 in experiment [1] (setting [3]) turned out to be 0.523 µM. Further, the IC50 in experiment [2] came to 20.5 nM. As to `CN(CCN)Cc1c[nH]nc1-c1ccc(C(F)(F)F)cc1F` [Compound 148], the EC30 in experiment [1] (setting [3]) is 7.3 µM. In addition, in experiment [2], inhibition was half-maximal at 68.2 nM (IC50). As to `Cc1[nH]nc(-c2ccc(F)cc2)c1CN(C)CCN` [Compound 169], the EC30 in experiment [1] (setting [3]) was > 20 µM. The molecule also displayed an IC50 in experiment [2] of 85 nM. Taken in the same sequence, the figures for `COc1ccc(Cl)cc1-c1n[nH]cc1CN(C)CCN` [Compound 157] were > 20 µM and 504 nM. Turning to `CN(CCN)Cc1n[nH]cc1-c1ccc(Oc2ccccc2)cc1` [Compound 203], the EC30 in experiment [1] (setting [3]) is 1.72 µM. In experiment [2], this molecule displayed an IC50 of 2.42 nM. Taken in the same sequence, the figures for `CNCCN(C)Cc1n[nH]cc1-c1ccc(Oc2ccccc2)cc1` [Compound 204] were 0.801 µM and 1.14 nM. Regarding `CN(CCN)Cc1c[nH]nc1-c1ccc2c(c1)OCC(=O)N2C` [Compound 192], the EC30 in experiment [1] (setting [3]) is > 20 µM. The same molecule returned an IC50 in experiment [2] of 34.6 nM.

Regarding `CNCCN(C)Cc1cn[nH]c1-c1ccc(C#N)cc1` [Compound 17], the EC30 in experiment [1] (setting [4]) was > 20 µM. Moreover, the IC50 in experiment [2] is 12.8 nM.

Consider `CNCCN(C)Cc1cn(C2CC2)nc1-c1ccc(F)cc1` [Compound 13], for which, in experiment [1] (setting [3]), the EC30 is > 20 µM. In experiment [2], this molecule registered a half-inhibitory concentration (IC50) of 271 nM. In the same order, the values of `CN(CCN)Cc1n[nH]cc1-c1ccc(C2CCOCC2)cc1` [Compound 145] are 1.95 µM and 60 nM. Taken in the same sequence, the figures for `Cc1ccc(F)cc1-c1n[nH]cc1CN(C)CCN` [Compound 159] were 8.56 µM and 27.3 nM. In the same order, the values of `CN(CCN)Cc1c[nH]nc1-c1ccc(OCCN2CCOCC2)cc1` [Compound 172] are > 20 µM and 26.4 nM. As to `CNCCN(C)Cc1cn(Cc2ccccc2)nc1-c1ccc(OC(C)C)cc1` [Compound 217], in experiment [1] (setting [3]), the EC30 came out at 2.15 µM. Also, in experiment [2], half-maximal inhibition (IC50) was put at 42.1 nM. With `CN(CCN)Cc1c[nH]nc1-c1ccc2c(c1)NC(=O)CO2` [Compound 173], the EC30 in experiment [1] (setting [3]) is > 20 µM. This molecule returned an IC50 in experiment [2] of 14.9 nM. As to `CCOc1ccc(-c2n[nH]cc2CN(C)CCN)cc1` [Compound 166], the EC30 in experiment [1] (setting [3]) came to 0.434 µM. This molecule also showed an IC50 in experiment [2] of 15.6 nM. Taken in the same sequence, the figures for `CNCCN(C)Cc1c[nH]nc1-c1ccc(Cl)c(F)c1` [Compound 182] were 0.179 µM and 5.48 nM. In the same order, the values of `C=CCn1cc(CN(C)CCNC)c(-c2ccc(OC(C)C)cc2)n1` [Compound 218] are 5.74 µM and 132 nM.

Regarding `Cc1ccc(-c2n[nH]cc2CN(C)CCN)cc1` [Compound 162], the EC30 in experiment [1] (setting [3]) was 1.34 µM. This molecule came in with an IC50 in experiment [2] of 7.71 nM. Turning to `CNCCN(C)Cc1c[nH]nc1-c1ccc(OCCCOC)c(Cl)c1` [Compound 228], in experiment [1] (setting [3]), the EC30 turned out to be 0.279 µM. Moreover, in experiment [2], it took 8.22 nM to reach half-maximal inhibition (IC50). In the same order, the values of `CN(CCN)Cc1c[nH]nc1-c1ccc2c(c1)N(C)C(=O)CO2` [Compound 196] are > 20 µM and 28.7 nM. Regarding `Cc1ccc(C#N)cc1-c1n[nH]cc1CN(C)CCN` [Compound 158], the EC30 in experiment [1] (setting [3]) was > 20 µM. Further, the half-inhibitory concentration (IC50) in experiment [2] was 115 nM. Taken in the same sequence, the figures for `CNCCN(C)Cc1c[nH]nc1-c1ccc(OC(C)C)c(F)c1` [Compound 181] were 0.046 µM and 17.3 nM.

For the molecule `Cc1ccccc1-c1n[nH]cc1CN(C)CCN` [Compound 161], the EC30 in experiment [1] (setting [3]) was 14.9 µM. In experiment [2], the IC50 came to 96.5 nM. Take `CCN(C)C(=O)c1ccc(-c2n[nH]cc2CN(C)CCN)cc1` [Compound 163]: the EC30 in experiment [1] (setting [3]) is > 20 µM. Besides, the IC50 in experiment [2] was 62.6 nM. On to `CNCCN(C)Cc1cn(C2CCCC2)nc1-c1ccc(OC(C)C)cc1` [Compound 214], for which the EC30 in experiment [1] (setting [3]) was 2.25 µM. Besides, the IC50 in experiment [2] was found to be 124 nM. Consider `C=CCn1ncc(CN(C)CCNC)c1-c1ccc(OC(C)C)cc1` [Compound 219], for which the EC30 in experiment [1] (setting [3]) came to 0.919 µM. The molecule further gave an IC50 in experiment [2] of 30.8 nM.

For `CN(CCN)Cc1c[nH]nc1-c1ccc(OCCCO)cc1` [Compound 195], the EC30 in experiment [1] (setting [3]) is 7.18 µM. The same molecule displayed an IC50 in experiment [2] of 9.24 nM. As to `CNCCN(C)Cc1c[nH]nc1-c1ccc(OC2CCOCC2)cc1` [Compound 175], the EC30 in experiment [1] (setting [3]) worked out at 0.174 µM. For the same molecule, in experiment [2], it took 12.5 nM to reach half-maximal inhibition (IC50). Taken in the same sequence, the figures for `COc1ccc(-c2n[nH]cc2CN(C)CCN)c(C(F)(F)F)c1` [Compound 154] were > 20 µM and 375 nM. Taken in the same sequence, the figures for `CNCCN(C)Cc1cnn(C)c1-c1ccc(Oc2ccccc2)cc1` [Compound 208] were 0.696 µM and 2.93 nM.
